According to patent publication US7037644B1, “Means and methods for monitoring non-nucleoside reverse transcriptase inhibitor antiretroviral therapy and guiding therapeutic decisions in the treatment of HIV/AIDS” (ViroLogic, Inc., priority 1998, dated 2006):
“Also recorded” adds a separate entry of the source.

Legend:
[1] = system: RTV-302, patient 97-302 (RT K103N, I135M, T200A, P225H); test: Phenotypic susceptibility assay (patient RTV); type: cell-based, HIV-1; details: patient virus RTV-302
Description: (§1) The resistance test vectors containing a functional luciferase gene cassette were constructed and host cells were transfected with the resistance test vector DNA. The resistant test vectors contained patient-derived reverse transcriptase and protease sequences that were either susceptible or resistant to the antiretroviral agents, such as nucleoside reverse transcriptase inhibitors, non-nucleoside reverse transcriptase inhibitors and protease inhibitors. […] The IC50 values were determined by plotting percent drug inhibition vs. log10 drug concentration.
(§2) Host cells were seeded in 10-cm-diameter dishes and were transfected several days after plating with resistance test vector plasmid DNA and the envelope expression vector. […] HIV capsid protein (p24) levels in the harvested cell culture media were determined by an EIA method as described by the manufacturer (SIAC; Frederick, Md.). […] The inhibitory effect of the drug was determined using the following equation: % luciferase inhibition=1−(RLUluc [drug]÷RLUluc)×100 where RLUluc [drug] is the relative light unit of luciferase activity in infected cells in the presence of drug and RLUluc is the Relative Light Unit of luciferase activity in infected cells in the absence of drug. […]
A resistance test vector was constructed as described in example 1 from a patient sample designated as 97-302. […] An IC50 was determined for each drug tested. […]

[2] = system: RTV-300, patient 97-300 (RT K32N, M184V, Y188L); test: Phenotypic susceptibility assay (patient RTV); type: cell-based, HIV-1; details: patient RTV pool
Description: as §1, §2

[3] = system: RTV-1057, patient 98-1057 (RT A98G, Y181C); test: Phenotypic susceptibility assay (patient RTV); type: cell-based, HIV-1; details: patient RTV pool
Description: as §1, §2

[4] = system: individual virus clones of patient 302: (K103N, P225H) compared with (K103N, I135M, R211K); test: Phenotypic susceptibility assay (patient virus clones); type: cell-based, HIV; details: FIG. 8G
Excerpt: as §1, with “inhibitors. The resistance test vector viral particles produced by transfecting the resistance test vector DNA into host cells, either in the presence or absence of protease inhibitors, were used to infect target host cells grown either in the absence of NRTI or NNRTI or in the presence of increasing concentrations of the drug. The amount of luciferase activity produced in infected target host cells in the presence of drug was compared to the amount of luciferase produced in infected target host cells in the absence of drug.” for “inhibitors.”
Host cells were seeded in 10-cm-diameter dishes and were transfected several days after plating with resistance test vector plasmid DNA and the envelope expression vector. […] HIV capsid protein (p24) levels in the harvested cell culture media were determined by an EIA method as described by the manufacturer (SIAC; Frederick, Md.). […]

| SMILES | change in susceptibility [1] | decrease in susceptibility (fold, IC50) [2] | decrease in susceptibility (fold, IC50) [3] [fold] | effect of P225H on resistance associated with K103N [4] |
| --- | --- | --- | --- | --- |
| CC(C)Nc1cccnc1N1CCN(C(=O)c2cc3cc(NS(C)(=O)=O)ccc3[nH]2)CC1 [delavirdine] | modest decrease; also recorded: reduced susceptibility | 25 fold | 35 | reduces the amount delavirdine resistance |
| Cc1ccnc2c1NC(=O)c1cccnc1N2C1CC1 [nevirapine] | significant decrease; also recorded: reduced susceptibility | greater than 800 fold | 610 | does not alter |
